According to ChEMBL document CHEMBL4425195, “Isolation of three new annonaceous acetogenins from Graviola fruit (Annona muricata) and their anti-proliferation on human prostate cancer cell PC-3” (Bioorg Med Chem Lett, 2016):
Calls of active or inactive are those of the source. The rule behind the calls is not given here.

Tested on: PC-3
Test: Antiproliferative activity against human PC3 cells at 20 ug/ml after 24 hrs by MTT assay
Assay type: functional, cell-based

| SMILES | Activity |
| --- | --- |
| CCCCCCCCCCCC/C=C/CC[C@H](O)[C@@H]1CC[C@@H]([C@@H](O)CCC(O)CCCCC[C@H](O)CC2=C[C@H](C)OC2=O)O1 (some centres not stated) | Active |
| CCCCCCCCCC[C@@H](O)[C@@H](O)C[C@H](O)[C@@H]1CC[C@@H](CCCCCCCCCC[C@H](O)CC2=C[C@H](C)OC2=O)O1 | Active |
